Source: patent publication US10774071B2, “PD-1/PD-L1 inhibitors” (Gilead Sciences, Inc., priority 2018, dated 2020)

Tests used:
PD-L1 = PD-L1 (Homo sapiens (Human), UniProt Q9NZQ7); assay: PD-L1/PD-L1 dimerization biochemical protein-protein interaction assay (ALPHA); assay type: binding; details: 0.5 nM His tagged PD-L1 and 0.5 nM FLAG tagged PD-L1, Table 4B, read-out: AC50 PDL1 Dimer 1 nM
PD-1/PD-L1 = PD-1/PD-L1 (Homo sapiens (Human), UniProt Q9NZQ7); assay: PD-1/PD-L1 biochemical protein-protein interaction assay (ALPHA); assay type: binding; details: 0.3 nM His tagged PD-L1, 2.5 nM biotinylated Fc-PD-1, Table 3B, read-out: IC50 PD-L1-PD1
PD-1/PD-L1, sequence (Q9NZQ7 19-238): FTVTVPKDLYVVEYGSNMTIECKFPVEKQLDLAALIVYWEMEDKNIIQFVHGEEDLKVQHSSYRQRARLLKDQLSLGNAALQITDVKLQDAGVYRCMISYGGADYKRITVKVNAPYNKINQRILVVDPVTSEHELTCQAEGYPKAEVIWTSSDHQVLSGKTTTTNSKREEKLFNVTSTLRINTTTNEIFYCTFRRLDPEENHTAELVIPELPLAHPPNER

PD-L1, sequence (Q9NZQ7 19-238): as above
PD-L1, sequence (Q9NZQ7 19-238): as above

SMILES	AC50 (PD-L1) [nM]	IC50 (PD-1/PD-L1) [nM]
COc1nc(-c2cccc(-c3cccc4c3CC[C@@H]4Oc3nc(OC)c(CNC4(C(=O)O)CC4)cc3C(F)(F)F)c2Cl)ccc1CN1CC2(CNC(=O)C2)C1 [B-169]	11.1	0.064
COc1nc(-c2cccc(-c3cccc4c3CC[C@@H]4Oc3nc(OC)c(CNC4(C(=O)O)CC4)cc3C(F)(F)F)c2Cl)ccc1CN1CC(C)(O)C1 [B-171]	15.2	0.064
COc1nc(-c2cccc(-c3cccc4c3CC[C@@H]4Oc3nc(OC)c(CN(C)CC(=O)O)cc3Cl)c2Cl)ccc1CNC[C@@H]1CCC(=O)N1 [B-173]	9.94	0.064
COc1nc(-c2cccc(-c3cccc4c3CC[C@@H]4Oc3nc(OC)c(CN4C[C@@H](C)[C@H]4C(=O)O)cc3Cl)c2Cl)ccc1CNC[C@@H]1CCC(=O)N1 [B-175]	14.3	0.064
COc1nc(-c2cccc(-c3cccc4c3CC[C@@H]4Oc3nc(OC)c(CN4CCCCC(C(=O)O)C4)cc3Cl)c2Cl)ccc1CNC[C@@H]1CCC(=O)N1 (stereo partly drawn) [B-176]	52.6	0.064
COc1nc(-c2cccc(-c3cccc4c3CC[C@@H]4Oc3nc(OC)c(CN4CCCC(C(=O)O)CC4)cc3Cl)c2Cl)ccc1CNC[C@@H]1CCC(=O)N1 (stereo partly drawn) [B-177]	17.9	0.064
COc1nc(-c2cccc(-c3cccc4c3CC[C@@H]4Oc3nc(OC)c(CN4CCC(C)(C(=O)O)CC4)cc3Cl)c2Cl)ccc1CNC[C@@H]1CCC(=O)N1 [B-178]	21.5	0.064
CCN(CC(=O)O)Cc1cc(C(F)(F)F)c(O[C@H]2CCc3c(-c4cccc(-c5cc(F)c(CNC[C@@H]6CCC(=O)N6)c(OC)c5)c4Cl)cccc32)nc1OC [B-179]	3.64	0.064
COc1nc(-c2cccc(-c3cccc4c3CC[C@@H]4Oc3nc(OC)c(CN4C[C@H]5C[C@]4(C(=O)O)[C@H]5C)cc3Cl)c2Cl)ccc1CNC[C@@H]1CCC(=O)N1 [B-180]	12.5	0.064
COc1nc(-c2cccc(-c3cccc4c3CC[C@@H]4Oc3nc(OC)c(CN4C[C@H]5[C@@H]([C@H]4C(=O)O)C5(C)C)cc3Cl)c2Cl)ccc1CNC[C@@H]1CCC(=O)N1 [B-182]	31.1	0.064
COc1nc(-c2cccc(-c3cccc4c3CC[C@@H]4Oc3nc(OC)c(CN4CCC(C)(C)[C@H]4C(=O)O)cc3Cl)c2Cl)ccc1CNC[C@@H]1CCC(=O)N1 [B-183]	25.1	0.064
COc1nc(-c2cccc(-c3cccc4c3CC[C@@H]4Oc3nc(OC)c(CN4C[C@H](C)C[C@H]4C(=O)O)cc3Cl)c2Cl)ccc1CNC[C@@H]1CCC(=O)N1 [B-185]	10.9	0.064
CCC1C(C(=O)O)CCN1Cc1cc(Cl)c(O[C@H]2CCc3c(-c4cccc(-c5ccc(CNC[C@@H]6CCC(=O)N6)c(OC)n5)c4Cl)cccc32)nc1OC (stereo partly drawn) [B-186]	19.7	0.064
COc1nc(O[C@H]2CCc3c(-c4cccc(-c5cc(F)c(CNC[C@@H]6CCC(=O)N6)c(OC)n5)c4Cl)cccc32)c(C(F)(F)F)cc1CN1CC2(C(=O)O)CCC1CC2 [B-190]	8.98	0.064
COc1nc(O[C@H]2CCc3c(-c4cccc(-c5cc(F)c(CNC[C@@H]6CCC(=O)N6)c(OC)n5)c4Cl)cccc32)c(C(F)(F)F)cc1CN1CC[C@@H](C(=O)O)C1 [B-191]	12.3	0.064
COc1cc(-c2cccc(-c3cccc4c3CC[C@@H]4Oc3nc(OC)c(CN4CC[C@@H](C(=O)O)C4)cc3C(F)(F)F)c2Cl)cc(F)c1CNC[C@@H]1CCC(=O)N1 [B-195]	5.79	0.064
COc1nc(-c2cccc(-c3cccc4c3CC[C@@H]4Oc3nc(OC)c(CNC(C)(C)CC(=O)O)cc3C(F)(F)F)c2Cl)ccc1CNC[C@@H]1CCC(=O)N1 [B-196]	6.31	0.064
COc1nc(-c2cccc(-c3cccc4c3CC[C@@H]4Oc3nc(OC)c(CNC(C)(C)CC(=O)O)cc3Cl)c2Cl)ccc1CNC[C@@H]1CCC(=O)N1 [B-197]	12.5	0.064
COc1nc(-c2cccc(-c3cccc4c3CC[C@@H]4Oc3nc(OC)c(CN4C[C@@H]5C[C@]5(C(=O)O)C4)cc3C(F)(F)F)c2Cl)ccc1CNC[C@@H]1CCC(=O)N1 [B-199]	17.5	0.064
COc1nc(-c2cccc(-c3cccc4c3CC[C@@H]4Oc3nc(OC4CC4)c(CN4CC[C@@H](C(=O)O)C4)cc3Cl)c2Cl)ccc1CNC[C@@H]1CCC(=O)N1 [B-200]	20.1	0.064
COc1nc(-c2cccc(-c3cccc4c3CC[C@@H]4Oc3nc(OC4CC4)c(CNC4(C(=O)O)CC4)cc3Cl)c2Cl)ccc1CNC[C@@H]1CCC(=O)N1 [B-201]	24.4	0.064
COc1nc(-c2cccc(-c3cccc4c3CC[C@@H]4Oc3nc(OC)c(CN4CC[C@@](C)(C(=O)O)C4)cc3C(F)(F)F)c2Cl)ccc1CNC[C@@H]1CC(O)C(=O)N1 (stereo partly drawn) [B-202]	3.43	0.064
COc1nc(-c2cccc(-c3cccc4c3CC[C@@H]4Oc3nc(OC)c(CN4CC5(C(=O)O)CCC4CC5)cc3C(F)(F)F)c2Cl)ccc1CNC[C@@H]1CC(O)C(=O)N1 (stereo partly drawn) [B-203]	5.21	0.064
COc1nc(-c2cccc(-c3cccc4c3CC[C@@H]4Oc3nc(OC)c(CNC4(C(=O)O)CC4)cc3C(F)(F)F)c2Cl)ccc1CNC[C@@H]1CC(O)C(=O)N1 (stereo partly drawn) [B-204]	9.7	0.064
COc1nc(-c2cccc(-c3cccc4c3CC[C@@H]4Oc3nc(OC)c(CNCC(=O)O)cc3C(F)(F)F)c2Cl)ccc1CNC[C@H]1C[C@](C)(O)C1 [B-206]	7.77	0.064
COc1nc(-c2cccc(-c3cccc4c3CC[C@@H]4Oc3nc(OC)c(CNC4(C(=O)O)CC4)cc3C(F)(F)F)c2Cl)ccc1CNC[C@H]1C[C@](C)(O)C1 [B-207]	11.9	0.064
COc1nc(-c2cccc(-c3cccc4c3CC[C@@H]4Oc3nc(OC)c(CN4CC[C@@](C)(C(=O)O)C4)cc3C(F)(F)F)c2Cl)ccc1CNC[C@H]1C[C@](C)(O)C1 [B-208]	23.5	0.064
COc1nc(-c2cccc(-c3cccc4c3CC[C@@H]4Oc3nc(OC)c(CN(C)CC(=O)O)cc3C(F)(F)F)c2Cl)ccc1CN[C@H]1C[C@](C)(O)C1 [B-210]	23.7	0.064
CC[C@H](NCc1cc(C(F)(F)F)c(O[C@H]2CCc3c(-c4cccc(-c5ccc(CN[C@H]6C[C@](C)(O)C6)c(OC)n5)c4Cl)cccc32)nc1OC)C(=O)O [B-211]	9.21	0.064
COc1nc(-c2cccc(-c3cccc4c3CC[C@@H]4Oc3nc(OC)c(CN4CC[C@@](C)(C(=O)O)C4)cc3C(F)(F)F)c2Cl)ccc1CN[C@H]1C[C@](C)(O)C1 [B-213]	17	0.064

Results, then the molecule that gave them:

AC50 (PD-L1) [nM]	IC50 (PD-1/PD-L1) [nM]	SMILES
11.8	0.064	COc1nc(-c2cccc(-c3cccc4c3CC[C@@H]4Oc3nc(OC)c(CNC4(C(=O)O)CC4)cc3C(F)(F)F)c2Cl)ccc1CN1CC2(C1)CN(C(C)=O)C2 [B-168]
15.2	0.064	COc1nc(-c2cccc(-c3cccc4c3CC[C@@H]4Oc3nc(OC)c(CNC4(C(=O)O)CC4)cc3C(F)(F)F)c2Cl)ccc1CN1CC2(CCC(=O)N2)C1 [B-170]
7.97	0.064	COc1nc(-c2cccc(-c3cccc4c3CC[C@@H]4Oc3nc(OC)c(CN4CC5CCC4C5C(=O)O)cc3Cl)c2Cl)ccc1CNC[C@@H]1CCC(=O)N1 (stereo partly drawn) [B-174]
18.9	0.064	COc1nc(-c2cccc(-c3cccc4c3CC[C@@H]4Oc3nc(OC)c(CN4CC5CCCC4(C(=O)O)C5)cc3Cl)c2Cl)ccc1CNC[C@@H]1CCC(=O)N1 (stereo partly drawn) [B-181]
19.8	0.064	COc1nc(-c2cccc(-c3cccc4c3CC[C@@H]4Oc3nc(OC)c(CN4CC5CC(C(=O)O)C4C5)cc3Cl)c2Cl)ccc1CNC[C@@H]1CCC(=O)N1 (stereo partly drawn) [B-184]
2.86	0.064	COc1cc(-c2cccc(-c3cccc4c3CC[C@@H]4Oc3nc(OC)c(CN(C)CC(=O)O)cc3C(F)(F)F)c2Cl)cc(F)c1CNC[C@@H]1CCC(=O)N1 [B-187]
12	0.064	COc1nc(O[C@H]2CCc3c(-c4cccc(-c5cc(F)c(CNC[C@@H]6CCC(=O)N6)c(OC)n5)c4Cl)cccc32)c(C(F)(F)F)cc1CN1CC[C@H](C(=O)O)C1 [B-188]
9.85	0.064	COc1nc(O[C@H]2CCc3c(-c4cccc(-c5cc(F)c(CNC[C@@H]6CCC(=O)N6)c(OC)n5)c4Cl)cccc32)c(C(F)(F)F)cc1CNC1(C(=O)O)CC1 [B-189]
6.8	0.064	COc1cc(-c2cccc(-c3cccc4c3CC[C@@H]4Oc3nc(OC)c(CNC(C)(C)CC(=O)O)cc3C(F)(F)F)c2Cl)cc(F)c1CNC[C@@H]1CCC(=O)N1 [B-192]
3.76	0.064	COc1cc(-c2cccc(-c3cccc4c3CC[C@@H]4Oc3nc(OC)c(CNC4(C(=O)O)CC4)cc3C(F)(F)F)c2Cl)cc(F)c1CNC[C@@H]1CCC(=O)N1 [B-193]
4.54	0.064	COc1cc(-c2cccc(-c3cccc4c3CC[C@@H]4Oc3nc(OC)c(CN4CC5(C(=O)O)CCC4CC5)cc3C(F)(F)F)c2Cl)cc(F)c1CNC[C@@H]1CCC(=O)N1 [B-194]
15.3	0.064	COc1nc(-c2cccc(-c3cccc4c3CC[C@@H]4Oc3nc(OC)c(CN4C[C@H]5C[C@@]5(C(=O)O)C4)cc3C(F)(F)F)c2Cl)ccc1CNC[C@@H]1CCC(=O)N1 [B-198]
7.55	0.064	COc1nc(-c2cccc(-c3cccc4c3CC[C@@H]4Oc3nc(OC)c(CNCC(=O)O)cc3C(F)(F)F)c2Cl)ccc1CN[C@]1(C)C[C@@](C)(O)C1 [B-205]
11.7	0.064	COc1nc(-c2cccc(-c3cccc4c3CC[C@@H]4Oc3nc(OC)c(CN4CC5(C(=O)O)CCC4CC5)cc3C(F)(F)F)c2Cl)ccc1CNC[C@H]1C[C@](C)(O)C1 [B-209]
17.5	0.064	COc1nc(-c2cccc(-c3cccc4c3CC[C@@H]4Oc3nc(OC)c(CN[C@H](C(=O)O)C(C)C)cc3C(F)(F)F)c2Cl)ccc1CN[C@H]1C[C@](C)(O)C1 [B-212]
